{
  "source": "ChEMBL document CHEMBL1201862",
  "about": "“PubChem BioAssay data set” (2004)",
  "key": {"[1]": {"target": "T1, Serine/threonine-protein phosphatase (Homo sapiens, UniProt Q9BPW0)", "T1 sequence (Q9BPW0 whole entry)": "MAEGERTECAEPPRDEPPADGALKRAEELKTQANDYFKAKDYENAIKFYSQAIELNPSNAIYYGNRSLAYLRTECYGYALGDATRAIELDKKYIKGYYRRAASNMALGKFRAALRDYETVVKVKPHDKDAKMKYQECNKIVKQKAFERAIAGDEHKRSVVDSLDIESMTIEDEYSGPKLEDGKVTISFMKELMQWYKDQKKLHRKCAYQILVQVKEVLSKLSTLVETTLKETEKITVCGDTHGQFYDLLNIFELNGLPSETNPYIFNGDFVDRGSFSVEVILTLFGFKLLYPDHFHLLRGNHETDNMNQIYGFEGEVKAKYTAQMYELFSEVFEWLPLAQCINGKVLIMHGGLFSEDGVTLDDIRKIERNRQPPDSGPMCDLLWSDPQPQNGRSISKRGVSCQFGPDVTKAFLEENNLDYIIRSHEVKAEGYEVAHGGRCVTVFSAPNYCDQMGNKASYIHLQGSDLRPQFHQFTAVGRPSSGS", "experiment": "PP5 phosphatase inhibitors, dose response, biochemical, fluorescence (AID 2395)"}, "[2]": {"target": "Tyrosine-protein kinase JAK2 (Homo sapiens, UniProt O60674)", "sequence (O60674 whole entry)": "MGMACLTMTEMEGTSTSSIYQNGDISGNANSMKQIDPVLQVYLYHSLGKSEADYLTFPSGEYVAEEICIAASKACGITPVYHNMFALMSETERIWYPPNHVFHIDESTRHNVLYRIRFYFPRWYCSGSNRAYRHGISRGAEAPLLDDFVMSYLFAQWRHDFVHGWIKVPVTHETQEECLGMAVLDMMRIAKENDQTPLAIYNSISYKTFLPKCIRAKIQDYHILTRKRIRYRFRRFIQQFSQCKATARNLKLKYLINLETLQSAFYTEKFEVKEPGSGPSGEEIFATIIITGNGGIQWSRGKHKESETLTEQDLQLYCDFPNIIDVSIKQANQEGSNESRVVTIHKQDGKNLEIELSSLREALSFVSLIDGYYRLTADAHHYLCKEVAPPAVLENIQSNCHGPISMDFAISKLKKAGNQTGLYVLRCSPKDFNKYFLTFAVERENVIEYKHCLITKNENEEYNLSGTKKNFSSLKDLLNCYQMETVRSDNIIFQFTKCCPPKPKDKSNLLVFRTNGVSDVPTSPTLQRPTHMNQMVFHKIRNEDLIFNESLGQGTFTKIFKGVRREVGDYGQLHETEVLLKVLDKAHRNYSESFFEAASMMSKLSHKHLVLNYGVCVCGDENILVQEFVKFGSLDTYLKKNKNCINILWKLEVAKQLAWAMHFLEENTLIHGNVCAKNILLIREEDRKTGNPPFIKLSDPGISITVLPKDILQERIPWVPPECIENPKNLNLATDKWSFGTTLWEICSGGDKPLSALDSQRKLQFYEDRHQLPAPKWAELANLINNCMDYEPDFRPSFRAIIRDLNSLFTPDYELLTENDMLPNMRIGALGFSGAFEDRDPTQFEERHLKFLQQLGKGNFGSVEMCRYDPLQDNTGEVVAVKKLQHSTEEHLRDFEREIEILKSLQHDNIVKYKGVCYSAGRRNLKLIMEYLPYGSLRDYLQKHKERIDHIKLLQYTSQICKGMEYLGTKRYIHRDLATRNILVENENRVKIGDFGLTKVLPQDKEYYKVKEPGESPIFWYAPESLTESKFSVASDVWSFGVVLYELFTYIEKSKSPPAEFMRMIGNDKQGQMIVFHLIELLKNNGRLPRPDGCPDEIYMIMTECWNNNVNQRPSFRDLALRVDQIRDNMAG", "format": "functional"}, "[3]": {"target": "Ribosomal protein S6 kinase beta-1 (Homo sapiens, UniProt P23443)", "sequence (P23443 whole entry)": "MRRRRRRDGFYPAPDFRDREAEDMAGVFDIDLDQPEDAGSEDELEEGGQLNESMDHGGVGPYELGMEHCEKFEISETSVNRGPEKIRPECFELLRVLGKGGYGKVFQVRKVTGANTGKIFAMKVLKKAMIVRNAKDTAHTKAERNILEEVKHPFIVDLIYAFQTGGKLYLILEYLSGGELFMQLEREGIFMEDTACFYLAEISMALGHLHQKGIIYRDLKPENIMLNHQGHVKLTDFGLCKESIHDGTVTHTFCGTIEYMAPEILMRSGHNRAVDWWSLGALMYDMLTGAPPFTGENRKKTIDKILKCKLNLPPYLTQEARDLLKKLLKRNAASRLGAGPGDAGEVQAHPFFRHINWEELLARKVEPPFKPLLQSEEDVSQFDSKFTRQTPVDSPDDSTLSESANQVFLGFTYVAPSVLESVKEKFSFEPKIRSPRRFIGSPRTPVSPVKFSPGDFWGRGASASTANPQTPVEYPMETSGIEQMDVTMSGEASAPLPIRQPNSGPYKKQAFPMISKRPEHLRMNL", "format": "functional"}, "[4]": {"target": "Eukaryotic elongation factor 2 kinase (Homo sapiens, UniProt O00418)", "sequence (O00418 whole entry)": "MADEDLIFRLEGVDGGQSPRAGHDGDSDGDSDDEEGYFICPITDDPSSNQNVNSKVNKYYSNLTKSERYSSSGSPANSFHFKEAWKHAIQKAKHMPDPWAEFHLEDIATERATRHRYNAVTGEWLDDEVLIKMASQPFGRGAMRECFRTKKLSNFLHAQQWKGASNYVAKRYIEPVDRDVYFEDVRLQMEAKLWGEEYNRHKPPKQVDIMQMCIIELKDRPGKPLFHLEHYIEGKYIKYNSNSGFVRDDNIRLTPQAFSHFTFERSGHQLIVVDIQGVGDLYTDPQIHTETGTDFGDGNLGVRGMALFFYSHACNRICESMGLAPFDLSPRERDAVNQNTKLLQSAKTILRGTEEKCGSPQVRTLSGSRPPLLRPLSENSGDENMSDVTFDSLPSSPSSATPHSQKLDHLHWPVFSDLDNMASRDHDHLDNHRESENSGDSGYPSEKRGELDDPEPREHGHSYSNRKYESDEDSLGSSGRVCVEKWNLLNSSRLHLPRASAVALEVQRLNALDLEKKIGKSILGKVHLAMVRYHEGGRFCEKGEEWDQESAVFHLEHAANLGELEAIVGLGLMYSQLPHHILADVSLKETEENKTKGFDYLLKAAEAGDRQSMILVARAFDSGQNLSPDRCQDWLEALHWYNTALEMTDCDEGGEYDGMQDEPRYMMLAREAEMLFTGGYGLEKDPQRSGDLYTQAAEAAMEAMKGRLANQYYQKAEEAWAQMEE", "format": "functional"}, "[5]": {"target": "SRSF protein kinase 1 (Homo sapiens, UniProt Q96SB4)", "sequence (Q96SB4 whole entry)": "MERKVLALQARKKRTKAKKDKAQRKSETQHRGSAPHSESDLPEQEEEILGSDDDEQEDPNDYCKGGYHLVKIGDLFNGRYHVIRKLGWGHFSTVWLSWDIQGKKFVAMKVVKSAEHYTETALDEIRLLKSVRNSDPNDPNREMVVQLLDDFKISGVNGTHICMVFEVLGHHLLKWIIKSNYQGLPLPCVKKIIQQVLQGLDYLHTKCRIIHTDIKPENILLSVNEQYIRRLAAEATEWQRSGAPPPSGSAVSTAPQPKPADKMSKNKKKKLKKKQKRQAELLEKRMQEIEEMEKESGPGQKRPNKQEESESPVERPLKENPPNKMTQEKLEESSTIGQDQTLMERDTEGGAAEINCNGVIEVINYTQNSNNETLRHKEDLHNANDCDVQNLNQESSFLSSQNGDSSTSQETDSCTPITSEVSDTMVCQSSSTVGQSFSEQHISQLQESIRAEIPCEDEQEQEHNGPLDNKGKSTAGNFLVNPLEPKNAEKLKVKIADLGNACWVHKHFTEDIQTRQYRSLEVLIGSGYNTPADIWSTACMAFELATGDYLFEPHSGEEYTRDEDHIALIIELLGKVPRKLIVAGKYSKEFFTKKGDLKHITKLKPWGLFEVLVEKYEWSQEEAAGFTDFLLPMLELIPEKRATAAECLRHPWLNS", "format": "functional"}, "[6]": {"target": "Mitogen-activated protein kinase 9 (Homo sapiens, UniProt P45984)", "format": "functional"}, "[7]": {"target": "T2, Dual specificity tyrosine-phosphorylation-regulated kinase 3 (Homo sapiens, UniProt O43781)", "T2 sequence (O43781 whole entry)": "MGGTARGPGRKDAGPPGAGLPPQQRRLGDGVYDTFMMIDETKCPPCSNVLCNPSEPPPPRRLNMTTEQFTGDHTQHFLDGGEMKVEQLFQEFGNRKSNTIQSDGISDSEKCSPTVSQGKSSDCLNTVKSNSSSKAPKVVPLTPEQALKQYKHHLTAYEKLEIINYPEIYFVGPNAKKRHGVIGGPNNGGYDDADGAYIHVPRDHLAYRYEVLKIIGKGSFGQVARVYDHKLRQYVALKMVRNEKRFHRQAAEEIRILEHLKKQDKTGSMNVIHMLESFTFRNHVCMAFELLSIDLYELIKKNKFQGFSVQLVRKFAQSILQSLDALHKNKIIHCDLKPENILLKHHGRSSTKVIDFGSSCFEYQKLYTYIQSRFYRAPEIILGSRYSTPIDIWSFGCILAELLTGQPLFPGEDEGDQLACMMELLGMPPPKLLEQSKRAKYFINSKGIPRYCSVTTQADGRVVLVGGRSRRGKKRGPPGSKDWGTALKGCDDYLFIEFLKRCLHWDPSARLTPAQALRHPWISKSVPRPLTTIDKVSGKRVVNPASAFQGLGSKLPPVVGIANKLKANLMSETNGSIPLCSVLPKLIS", "format": "functional"}, "[8]": {"target": "Tyrosine-protein kinase ABL1 (Homo sapiens, UniProt P00519)", "sequence (P00519 whole entry)": "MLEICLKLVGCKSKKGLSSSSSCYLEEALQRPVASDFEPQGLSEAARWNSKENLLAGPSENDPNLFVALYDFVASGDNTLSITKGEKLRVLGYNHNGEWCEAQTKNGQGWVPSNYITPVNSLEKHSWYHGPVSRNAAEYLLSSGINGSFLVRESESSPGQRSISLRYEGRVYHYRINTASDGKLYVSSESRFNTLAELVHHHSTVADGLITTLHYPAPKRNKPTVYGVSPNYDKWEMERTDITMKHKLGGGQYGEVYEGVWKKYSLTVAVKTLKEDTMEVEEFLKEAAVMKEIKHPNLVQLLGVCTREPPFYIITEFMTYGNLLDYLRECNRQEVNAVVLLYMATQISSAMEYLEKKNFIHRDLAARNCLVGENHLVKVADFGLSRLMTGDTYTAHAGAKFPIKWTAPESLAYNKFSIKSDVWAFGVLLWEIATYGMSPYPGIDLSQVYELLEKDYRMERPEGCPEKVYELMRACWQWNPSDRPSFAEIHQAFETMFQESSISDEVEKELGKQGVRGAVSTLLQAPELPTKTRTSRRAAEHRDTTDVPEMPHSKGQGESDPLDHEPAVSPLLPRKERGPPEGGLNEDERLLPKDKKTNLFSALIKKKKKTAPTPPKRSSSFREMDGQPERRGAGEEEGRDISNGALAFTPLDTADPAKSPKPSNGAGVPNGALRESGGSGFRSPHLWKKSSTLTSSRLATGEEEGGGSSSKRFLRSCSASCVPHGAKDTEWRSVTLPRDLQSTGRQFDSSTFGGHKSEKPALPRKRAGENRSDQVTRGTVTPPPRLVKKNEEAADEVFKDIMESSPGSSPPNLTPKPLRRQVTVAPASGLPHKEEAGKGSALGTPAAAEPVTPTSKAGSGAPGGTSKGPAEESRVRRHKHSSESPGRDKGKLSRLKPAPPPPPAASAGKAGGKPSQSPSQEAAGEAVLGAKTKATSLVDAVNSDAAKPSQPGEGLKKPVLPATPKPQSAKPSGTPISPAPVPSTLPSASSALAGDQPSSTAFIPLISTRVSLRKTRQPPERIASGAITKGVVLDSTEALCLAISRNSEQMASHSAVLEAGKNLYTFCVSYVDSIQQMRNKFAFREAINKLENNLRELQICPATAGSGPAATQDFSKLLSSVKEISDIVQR", "format": "functional"}, "[9]": {"target": "Cyclin-dependent kinase 1 (Homo sapiens, UniProt P06493)", "sequence (P06493 whole entry)": "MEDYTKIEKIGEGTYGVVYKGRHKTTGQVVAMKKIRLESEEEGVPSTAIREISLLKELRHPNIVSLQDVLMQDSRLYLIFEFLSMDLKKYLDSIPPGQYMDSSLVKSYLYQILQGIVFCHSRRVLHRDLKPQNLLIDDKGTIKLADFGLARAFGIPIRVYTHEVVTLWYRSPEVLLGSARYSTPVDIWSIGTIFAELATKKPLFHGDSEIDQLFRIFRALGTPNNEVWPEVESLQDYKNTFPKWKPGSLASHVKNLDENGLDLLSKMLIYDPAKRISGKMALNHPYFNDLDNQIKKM", "format": "functional"}, "[10]": {"target": "Serine/threonine-protein kinase DCLK1 (Homo sapiens, UniProt O15075)", "format": "functional"}, "[11]": {"target": "BDNF/NT-3 growth factors receptor (Homo sapiens, UniProt Q16620)", "format": "functional"}, "[12]": {"target": "T3, Lymphokine-activated killer T-cell-originated protein kinase (Homo sapiens, UniProt Q96KB5)", "T3 sequence (Q96KB5 whole entry)": "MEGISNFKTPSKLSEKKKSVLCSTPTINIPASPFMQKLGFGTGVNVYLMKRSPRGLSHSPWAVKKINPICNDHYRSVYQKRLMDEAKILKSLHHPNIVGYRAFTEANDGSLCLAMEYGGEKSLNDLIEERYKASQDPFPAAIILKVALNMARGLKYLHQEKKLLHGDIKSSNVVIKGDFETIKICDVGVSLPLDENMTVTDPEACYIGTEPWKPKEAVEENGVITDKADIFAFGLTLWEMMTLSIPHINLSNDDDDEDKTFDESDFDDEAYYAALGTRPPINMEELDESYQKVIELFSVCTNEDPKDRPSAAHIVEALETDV", "format": "functional"}, "[13]": {"target": "T4, Tyrosine-protein phosphatase non-receptor type 22 (Homo sapiens, UniProt Q9Y2R2)", "T4 sequence (Q9Y2R2 whole entry)": "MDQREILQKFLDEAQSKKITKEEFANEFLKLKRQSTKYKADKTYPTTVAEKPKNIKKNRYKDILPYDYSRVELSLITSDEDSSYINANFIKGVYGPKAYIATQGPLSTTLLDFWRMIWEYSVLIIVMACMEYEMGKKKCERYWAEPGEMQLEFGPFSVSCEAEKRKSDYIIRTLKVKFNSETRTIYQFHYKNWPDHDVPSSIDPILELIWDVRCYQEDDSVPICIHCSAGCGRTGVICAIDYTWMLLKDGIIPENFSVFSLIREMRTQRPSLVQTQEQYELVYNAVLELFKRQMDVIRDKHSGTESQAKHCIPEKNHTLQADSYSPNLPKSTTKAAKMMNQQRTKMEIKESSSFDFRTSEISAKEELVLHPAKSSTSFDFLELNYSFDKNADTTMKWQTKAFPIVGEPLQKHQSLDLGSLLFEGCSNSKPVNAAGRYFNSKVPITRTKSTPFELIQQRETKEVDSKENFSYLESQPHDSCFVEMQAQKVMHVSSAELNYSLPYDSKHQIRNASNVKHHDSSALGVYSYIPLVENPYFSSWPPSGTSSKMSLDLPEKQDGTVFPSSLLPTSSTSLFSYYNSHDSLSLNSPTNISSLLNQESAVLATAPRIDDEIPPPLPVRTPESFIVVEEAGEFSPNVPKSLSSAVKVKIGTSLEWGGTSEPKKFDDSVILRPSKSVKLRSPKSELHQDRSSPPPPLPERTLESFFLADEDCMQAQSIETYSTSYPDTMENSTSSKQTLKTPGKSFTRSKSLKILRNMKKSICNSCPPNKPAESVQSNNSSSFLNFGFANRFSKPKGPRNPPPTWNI", "format": "functional"}, "[14]": {"target": "Mu-type opioid receptor (Homo sapiens, UniProt P35372)", "sequence (P35372 whole entry)": "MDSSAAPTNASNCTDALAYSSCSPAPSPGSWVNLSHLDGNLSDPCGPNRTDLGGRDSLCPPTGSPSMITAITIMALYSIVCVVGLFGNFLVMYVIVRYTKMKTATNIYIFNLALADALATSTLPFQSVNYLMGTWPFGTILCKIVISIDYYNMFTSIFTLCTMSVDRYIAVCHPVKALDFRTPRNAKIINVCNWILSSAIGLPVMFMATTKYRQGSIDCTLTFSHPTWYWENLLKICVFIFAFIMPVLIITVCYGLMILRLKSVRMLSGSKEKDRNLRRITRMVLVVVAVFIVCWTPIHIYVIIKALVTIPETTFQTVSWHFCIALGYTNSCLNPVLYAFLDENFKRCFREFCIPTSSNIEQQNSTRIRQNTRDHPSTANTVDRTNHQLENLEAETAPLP", "experiment": "Counterscreen for agonists of heterodimerization of the mu 1 (OPRM1) and delta 1 (OPRD1) opioid receptors: Luminescence-based cell-based high throughput dose response assay to identify agonists of OPRM1 homodimerization.", "format": "functional"}, "[15]": {"experiment": "HepG2 cell cytotoxicity, dose response, cytotoxicity control, plate reader, cherry-pick, antagonist series (AID 743416)", "format": "functional, cell-based"}},
  "note": "Calls of active or inactive are those of the source.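 For EC50 in this document: U2OS cells expressing OPRM1 and beta-arrestin as split beta-galactosidase partners.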",
  "data": [
    {"smiles": "CC(=O)c1ccc(NC2=C(N3CCOCC3)C(=O)c3ccccc3C2=O)cc1", "values": [
      {"measurement": "IC50", "setting": "[1]", "result": "19.3 µM (not active)"}
    ]},
    {"smiles": "COc1cc2ncn(-c3cc(OCc4ccccc4C(F)(F)F)c(C(N)=O)s3)c2cc1OC", "note": "[GW843682X]", "values": [
      {"measurement": "Ki", "setting": "[2]", "result": "1.26 µM (active)"},
      {"measurement": "Ki", "setting": "[3]", "result": "> 6.31 µM (inactive)"},
      {"measurement": "Ki", "setting": "[4]", "result": "> 3.98 µM (inactive)"},
      {"measurement": "Ki", "setting": "[5]", "result": "> 7.94 µM (inactive)"},
      {"measurement": "Ki", "setting": "[6]", "result": "> 3.98 µM (inactive)"},
      {"measurement": "Ki", "setting": "[7]", "result": "> 6.31 µM (inactive)"},
      {"measurement": "Ki", "setting": "[8]", "result": "> 0.631 µM (inactive)"},
      {"measurement": "Ki", "setting": "[9]", "result": "> 7.94 µM (inactive)"},
      {"measurement": "Ki", "setting": "[10]", "result": "> 10 µM (inactive)"},
      {"measurement": "Ki", "setting": "[11]", "result": "> 5.01 µM (inactive)"},
      {"measurement": "Ki", "setting": "[12]", "result": "> 10 µM (inactive)"}
    ]},
    {"smiles": "CCCc1nc2c(=O)n(C)c(=O)nc-2n(C)n1", "values": [
      {"measurement": "IC50", "setting": "[13]", "result": "1.6 µM (active)"},
      {"measurement": "EC50", "setting": "[14]", "result": "> 92.5 µM (inactive)"},
      {"measurement": "AC50", "setting": "[15]", "result": "3.39 µM (active)"}
    ]}
  ]
}
